Legend:
recombinant BRD4 BD2 = target: T1, recombinant BRD4 BD2 (Homo sapiens, UniProt O60885); test: Competitive fluorescence-polarization (FP) binding assay, BRD4 BD2; settings: FAM labeled probe 1.5 nM, protein 6 nM, pH 6.5
T1 construct: recombinant BRD4 BD1 and BRD4 BD2 proteins
Procedure: (§1) Fluorescence Polarization (FP) competitive binding studies were carried out using a FAM labeled fluorescent probe (ZBA248 or BRD-1F) to determine binding affinities of representative Compounds of the Disclosure for recombinant BRD4 BD1 and BRD4 BD2 proteins. For example, equilibrium dissociation constants (Kd) values of ZBA248 to these six proteins were determined from protein saturation experiments by monitoring the total fluorescence polarization of mixtures composed with the fluorescent probe at a fixed concentration and proteins with increasing concentrations up to full saturation. Serial dilutions of testing protein were mixed with ZBA248 to a final volume of 200 μl in the assay buffer. In order to achieve large dynamic rages, particularly for BD1 bromodomains, 100 mM phosphate buffer (pH=6.5, 0.01% Triton X-100 (Sigma, 282103) being added right before assays) was used as the assay buffer. Final ZBA248 concentration was 1.5 nM for all proteins. Plates were incubated at room temperature for 30 minutes with gentle shaking to assure equilibrium. FP values in millipolarization units (mP) were measured using the Infinite M-1000 plate reader (Tecan U.S., Research Triangle Park, N.C.) in Microfluor 1 96-well, black, round-bottom plates (Thermo Scientific, Waltham, Mass.) at an excitation wavelength of 485 nm and an emission wavelength of 530 nm. Kd values of ZBA248 were calculated by fitting the sigmoidal dose-dependent FP increases as a function of protein concentrations using Graphpad Prism 6.0 software (Graphpad Software, San Diego, Calif.).
(§2) The IC50 and Ki values of representative Compounds of the Disclosure were determined in a competitive binding experiment as described above. Mixtures of 10 μl of the tested compounds in assay buffer with 40% Ethylene Glycol and 190 μl of preincubated protein/probe complex solution in the assay buffer (100 mM potassium phosphate, pH 6.5, 0.01% Triton X-100) were added into assay plates which were incubated at room temperature for 30 minutes with gentle shaking. Final concentrations of proteins were 10 and 6 nM in assays for BD1 and BD2 of BRD4, respectively. Final probe concentration is 1.5 nM in all assays. Negative controls containing protein/probe complex only (equivalent to 0% inhibition), and positive controls containing only free probes (equivalent to 100% inhibition), were included in each assay plate. FP values were measured as described above. IC50 values were determined by nonlinear regression fitting of the competition curves. Instead of being calculated from IC50 values as described before, Ki values of competitive inhibitors were obtained directly by nonlinear regression fitting as well, based upon the Kd values of the probe to different proteins, and concentrations of the proteins and probes in the competitive assays (Wang, FEBS Lett. 360; 111 (1995); Zhang et al., Analytical Biochemistry, 331; 138 (2004)).
(§3) Binding affinities of representative Compounds of the Disclosure to BRD4 BD1 and BRD4 BD2 proteins in competitive, fluorescence-polarization assays are presented in Table 2.

recombinant BRD4 BD1 = target: T2, recombinant BRD4 BD1 (Homo sapiens, UniProt O60885); test: Competitive fluorescence-polarization (FP) binding assay, BRD4 BD1; settings: FAM labeled probe 1.5 nM, protein 10 nM, pH 6.5
T2 construct: recombinant BRD4 BD1 and BRD4 BD2 proteins
Procedure: as §1, §2, §3

MDA-MB-231 cells = test: Cell growth inhibition, 4-day proliferation assay (WST), MDA-MB-231; format: cell-based; settings: Homo sapiens, MDA-MB-231, 96 h, breast cancer cell line, 4 days treatment
Procedure: (§4) The effect of representative Compounds of the Disclosure on cell viability was determined in a 4-day proliferation assay. Cells were maintained in the appropriate culture medium with 10% FBS at 37° C. and an atmosphere of 5% CO2. All the cell lines were used within three months of thawing fresh vials.
(§5) Cells were seeded in 96-well flat bottom (Corning COSTAR, Corning, NY, cat#3595) or white opaque cell culture plates (BD Falcon, cat#353296) at a density of 3,000-10,000 cells/well in 75 μl of culture medium. Compounds were serially diluted in the appropriate medium, and 75 μl of the diluted compounds were added to the appropriate wells of the cell plate. After the addition of compounds, the cells were incubated at 37° C. in an atmosphere of 5% CO2 for 4 days. Cell viability was determined using the CellTiter-Glo® Luminescent Cell Viability Assay Kit (Promega, Madison, Wis.) for RS4-11 and MV4-11 cells and WST (2-(2-methoxy-4-nitrophenyl)-3-(4-nitrophenyl)-5-(2,4-disulfophenyl)-2H-tetrazolium, monosodium salt) Cell Counting-8 Kit (Dojindo Molecular Technologies, Inc., Rockville, Md.) for MDA-MB-231 cells according to the manufacturers' instructions.
For WST assay (MDA-MB-231 cells), WST-8 reagent was added to each well at a final concentration of 10% (v/v), and then the plates were incubated at 37° C. for 1-2 hours for color development. The absorbance was measured at 450 nm using a SPECTRAmax PLUS plate reader (Molecular Devices, Sunnyvale, Calif.). The readings were normalized to the DMSO-treated cells and the half maximal inhibitory concentration (IC50) was calculated by nonlinear regression (four parameters sigmoid fitted with variable slope, least squares fit, and no constraint) analysis using the GraphPad Prism 5 software (GraphPad Software, La Jolla, Calif.).
(§6) Cell growth inhibition of representative Compounds of the Disclosure in representative breast cancer (MDA-MB-231), acute leukemia (MV4-11), and prostate cancer cell lines (LNCaP), as determined by a WST assay, are presented in Table 3. Cells were treated with each inhibitor for 4 days.

LNCaP cells = test: Cell growth inhibition, 4-day proliferation assay, LNCaP; format: cell-based; settings: Homo sapiens, 96 h, prostate cancer cell line, 4 days treatment
Procedure: as §4, §5, §6

MV4-11 cells = test: Cell growth inhibition, 4-day proliferation assay, MV4-11; format: cell-based; settings: Homo sapiens, MV4-11, 96 h, acute leukemia cell line, 4 days treatment
Procedure: as §4, §5
For CellTiter-Glo assay (RS4-11 and MV4-11 cells), 100 μl of CellTiter-Glo® Reagent was added to each well, and then the plates were incubated at room temperature for 10-20 minutes. The luminescent signal was measured using a Tecan Infinite M1000 multimode microplate reader (Tecan, Morrisville, N.C.). The readings were normalized to the DMSO-treated cells and the IC50 was calculated by nonlinear regression (four parameters sigmoid fitted with variable slope, least squares fit, and no constraint) analysis using the GraphPad Prism 5 software.
as §6

Row | IC50 (recombinant BRD4 BD2) | IC50 (recombinant BRD4 BD1) | IC50 (MDA-MB-231 cells) | IC50 (LNCaP cells) | IC50 (MV4-11 cells) | Structure (SMILES)
1 | 91.5 nM | 103 nM |  |  |  | COc1cc2c(cc1-c1c(C)n[nH]c1C)[nH]c1ncnc(Nc3cc(C4CC4)nn3C)c12 [Cpd. No. 11, N-(3-cyclopropyl-1-methyl-1H-pyrazol-5-yl)-7-(3,5-dimethyl-1H-pyrazol-4-yl)-6-methoxy-9H-pyrimido[4,5-b]indol-4-amine]
2 | 19 nM | 22.6 nM | 66 nM |  |  | COc1cc2c(cc1-c1c(C)noc1C)[nH]c1nc(C)nc(Nc3cc(C4CC4)nn3-c3ccncc3)c12 [Cpd. No. 9, N-(3-Cyclopropyl-1-(pyridin-4-yl)-1H-pyrazol-5-yl)-7-(3,5-dimethylisoxazol-4-yl)-6-methoxy-2-methyl-9H-pyrimido[4,5-b]indol-4-amine]
3 | 1.6 nM | 3.5 nM | 18 nM | 67 nM |  | COc1cc2c(cc1-c1c(C)noc1C)[nH]c1nc(N)nc(Nc3c4c(nn3C)CCC4)c12 [Cpd. No. 3, 7-(3,5-dimethylisoxazol-4-yl)-6-methoxy-N4-(2-methyl-2,4,5,6-tetrahydrocyclopenta[c]pyrazol-3-yl)-9H-pyrimido[4,5-b]indole-2,4-diamine]
4 | > 1000 nM | > 1000 nM |  |  |  | COc1cc2c(cc1-c1c(C)nn(C)c1C)[nH]c1ncnc(Nc3cc(C4CC4)nn3C)c12 [Cpd. No. 21, N-(3-Cyclopropyl-1-methyl-1H-pyrazol-5-yl)-6-methoxy-7-(1,3,5-trimethyl-1H-pyrazol-4-yl)-9H-pyrimido[4,5-b]indol-4-amine]
5 | 132 nM | 131 nM | 1400 nM |  |  | COc1cc2c(cc1-n1c(C)nnc1C)[nH]c1nc(C)nc(Nc3cc(C4CC4)nn3C)c12 [Cpd. No. 15, N-(3-cyclopropyl-1-methyl-1H-pyrazol-5-yl)-7-(3,5-dimethyl-4H-1,2,4-triazol-4-yl)-6-methoxy-2-methyl-9H-pyrimido[4,5-b]indol-4-amine]
6 | 12.1 nM | 18.2 nM |  |  |  | COc1cc2c(cc1-c1c(C)noc1C)[nH]c1nc(C)nc(Nc3cc(C4CC4)nn3-c3cnn(C)c3)c12 [Cpd. No. 12, N-(3-Cyclopropyl-1′-methyl-1′H-[1,4′-bipyrazol]-5-yl)-7-(3,5-dimethylisoxazol-4-yl)-6-methoxy-2-methyl-9H-pyrimido[4,5-b]indol-4-amine]
7 | 75.2 nM | 54 nM |  |  |  | COc1cc2c(cc1-c1c(C)noc1C)[nH]c1nc(C)nc(Nc3cc(C4CC4)nn3-c3ccc(C(=O)O)cc3)c12 [Cpd. No. 10, 4-(3-Cyclopropyl-5-((7-(3,5-dimethylisoxazol-4-yl)-6-methoxy-2-methyl-9H-pyrimido[4,5-b]indol-4-yl)amino)-1H-pyrazol-1-yl)benzoic acid]
8 | 1300 nM | 652 nM | > 1000 nM |  |  | COc1cc2c(cc1-n1c(C)nnc1C)[nH]c1ncnc(Nc3cc(C4CC4)nn3C)c12 [Cpd. No. 8, N-(3-Cyclopropyl-1-methyl-1H-pyrazol-5-yl)-7-(3,5-dimethyl-4H-1,2,4-triazol-4-yl)-6-methoxy-9H-pyrimido[4,5-b]indol-4-amine]
9 | 2.9 nM | 3.6 nM | 6 nM |  | 4 nM | COCc1nc(Nc2c3c(nn2C(C)C)CCC3)c2c(n1)[nH]c1cc(-c3c(C)noc3C)c(OC)cc12 [Cpd. No. 6, 7-(3,5-dimethylisoxazol-4-yl)-N-(2-isopropyl-2,4,5,6-tetrahydrocyclopenta[c]pyrazol-3-yl)-6-methoxy-2-(methoxymethyl)-9H-pyrimido[4,5-b]indol-4-amine]
10 | 19.7 nM | 141 nM |  |  |  | COc1cc2c(cc1-c1c(C)noc1C)[nH]c1nc(C)nc(Nc3cc(C4CC4)nn3-c3cn(C)cn3)c12 [Cpd. No. 14, N-(3-Cyclopropyl-1-(1-methyl-1H-imidazol-4-yl)-1H-pyrazol-5-yl)-7-(3,5-dimethylisoxazol-4-yl)-6-methoxy-2-methyl-9H-pyrimido[4,5-b]indol-4-amine]
11 | 34.3 nM | 59.7 nM |  |  |  | COc1cc2c(cc1-c1c(C)noc1C)[nH]c1nc(C)nc(Nc3cc(C4CC4)n(-c4cnn(C)c4)n3)c12 [Cpd. No. 13, N-(5-Cyclopropyl-1′-methyl-1′H-[1,4′-bipyrazol]-3-yl)-7-(3,5-dimethylisoxazol-4-yl)-6-methoxy-2-methyl-9H-pyrimido[4,5-b]indol-4-amine]
12 | 2.1 nM | 3.9 nM | 6 nM |  | 3 nM | COCc1nc(Nc2cc(C3CC3)nn2C(C)C)c2c(n1)[nH]c1cc(-c3c(C)noc3C)c(OC)cc12 [Cpd. No. 7, N-(3-cyclopropyl-1-isopropyl-1H-pyrazol-5-yl)-7-(3,5-dimethylisoxazol-4-yl)-6-methoxy-2-(methoxymethyl)-9H-pyrimido[4,5-b]indol-4-amine]
13 | 2.5 nM | 1 nM | 6 nM | 20 nM |  | CCn1nc2c(c1Nc1nc(N)nc3[nH]c4cc(-c5c(C)noc5C)c(OC)cc4c13)CCC2 [Cpd. No. 4, 7-(3,5-dimethylisoxazol-4-yl)-N4-(2-ethyl-2,4,5,6-tetrahydrocyclopenta[c]pyrazol-3-yl)-6-methoxy-9H-pyrimido[4,5-b]indole-2,4-diamine]
14 | 2.1 nM | 1 nM | 46 nM | 3 nM |  | COc1cc2c(cc1-c1c(C)noc1C)[nH]c1nc(N)nc(Nc3cc(C4CC4)nn3C(C)C)c12 [Cpd. No. 2, N4-(3-cyclopropyl-1-isopropyl-1H-pyrazol-5-yl)-7-(3,5-dimethylisoxazol-4-yl)-6-methoxy-9H-pyrimido[4,5-b]indole-2,4-diamine]
15 | > 1000 nM | > 1000 nM |  |  |  | COc1cc2c(cc1Br)[nH]c1ncnc(Nc3cc(C4CC4)nn3C)c12 [Cpd. No. 1, 7-Bromo-N-(3-cyclopropyl-1-methyl-1H-pyrazol-5-yl)-6-methoxy-9H-pyrimido[4,5-b]indol-4-amine]

From patent publication US10307407B2, “9H-pyrimido [4,5-B] indoles as BET bromodomain inhibitors” (THE REGENTS OF THE UNIVERSITY OF MICHIGAN, priority 2015, dated 2019)
